Data: PMC7444660 (ACS chemical neuroscience, 2020)

Experiments:
PDE4D [1] = experiment: PET imaging in monkey brain, baseline and preblock; format: in vivo, rhesus monkeys (Macaca mulatta)
PDE4D [2] = target: PDE4D (Homo sapiens, UniProt Q08499); experiment: PET imaging in human brain; format: in vivo; conditions: po, read-out: occupancy of the target enzyme
PDE4B1 (S133D) = PDE4B1 (S133D) (Homo sapiens, UniProt Q07343, S133D/S659A/S661A); experiment: PDE4 enzyme inhibition assay, counter-screen; format: biochemical
[3] = Radioligand lipophilicity; format: physicochemical; conditions: n-octanol/sodium phosphate buffer, pH 7.4
[4] = Mouse iv cassette pharmacokinetics, brain uptake; format: in vivo, CD1 mice; conditions: intravenous dosing; SUV = brain Cmax (ng/mL)/dose (mg/kg)/1000
Human PDE4D7* (S129D) = Human PDE4D7* (S129D) (Homo sapiens, UniProt Q08499, S190D/S715A/S717A); experiment: PDE4 enzyme inhibition assay
[5] = target: serotonin 5-HT2B receptor (Homo sapiens, UniProt P41595); experiment: NIMH Psychoactive Drug Screening Panel, hit; format: binding
[6] = test system: panel of GPCRs and other binding sites; experiment: NIMH Psychoactive Drug Screening Panel

PDE4B1 (S133D), sequence (Q07343 whole entry S133D/S659A/S661A): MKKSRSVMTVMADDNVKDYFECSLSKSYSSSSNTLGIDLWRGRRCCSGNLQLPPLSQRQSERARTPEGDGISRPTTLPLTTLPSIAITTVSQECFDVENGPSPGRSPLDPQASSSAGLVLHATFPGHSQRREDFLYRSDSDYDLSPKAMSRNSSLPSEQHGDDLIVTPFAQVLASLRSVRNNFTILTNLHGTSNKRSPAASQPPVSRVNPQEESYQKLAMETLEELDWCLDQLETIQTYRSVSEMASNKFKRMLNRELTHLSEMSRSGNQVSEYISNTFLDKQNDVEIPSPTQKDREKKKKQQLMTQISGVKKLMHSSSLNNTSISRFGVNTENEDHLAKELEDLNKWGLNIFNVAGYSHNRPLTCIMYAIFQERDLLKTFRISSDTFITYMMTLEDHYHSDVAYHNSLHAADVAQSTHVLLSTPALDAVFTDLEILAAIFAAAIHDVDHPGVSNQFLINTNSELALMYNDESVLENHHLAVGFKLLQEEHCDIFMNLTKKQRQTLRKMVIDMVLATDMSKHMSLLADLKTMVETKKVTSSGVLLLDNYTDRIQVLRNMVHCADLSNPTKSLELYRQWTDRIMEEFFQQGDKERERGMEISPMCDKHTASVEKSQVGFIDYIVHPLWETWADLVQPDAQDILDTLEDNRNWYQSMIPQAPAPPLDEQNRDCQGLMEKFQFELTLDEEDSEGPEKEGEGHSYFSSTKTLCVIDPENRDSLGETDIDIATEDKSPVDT
Human PDE4D7* (S129D), sequence (Q08499 1-748 isoform Q08499-11 S129D/S654A/S656A): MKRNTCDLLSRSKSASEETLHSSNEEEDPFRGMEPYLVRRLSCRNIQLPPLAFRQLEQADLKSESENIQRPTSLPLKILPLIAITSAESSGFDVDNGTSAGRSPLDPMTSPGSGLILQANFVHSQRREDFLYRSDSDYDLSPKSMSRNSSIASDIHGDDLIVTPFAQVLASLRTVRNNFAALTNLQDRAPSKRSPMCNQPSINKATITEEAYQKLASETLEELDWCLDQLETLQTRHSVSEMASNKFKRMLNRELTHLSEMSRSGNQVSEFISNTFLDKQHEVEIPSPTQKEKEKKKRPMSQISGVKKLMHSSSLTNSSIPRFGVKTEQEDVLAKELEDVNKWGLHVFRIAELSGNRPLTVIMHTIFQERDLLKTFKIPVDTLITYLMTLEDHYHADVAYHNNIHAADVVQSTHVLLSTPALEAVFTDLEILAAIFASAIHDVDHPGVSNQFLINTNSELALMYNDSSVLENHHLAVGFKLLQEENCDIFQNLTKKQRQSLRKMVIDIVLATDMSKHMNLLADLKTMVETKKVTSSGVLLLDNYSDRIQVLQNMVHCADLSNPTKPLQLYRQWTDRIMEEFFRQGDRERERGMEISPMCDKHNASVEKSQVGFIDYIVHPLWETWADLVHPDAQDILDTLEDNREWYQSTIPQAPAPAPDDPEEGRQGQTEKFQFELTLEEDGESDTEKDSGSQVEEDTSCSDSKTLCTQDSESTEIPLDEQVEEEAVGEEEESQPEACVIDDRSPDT
serotonin 5-HT2B receptor, sequence (P41595 whole entry): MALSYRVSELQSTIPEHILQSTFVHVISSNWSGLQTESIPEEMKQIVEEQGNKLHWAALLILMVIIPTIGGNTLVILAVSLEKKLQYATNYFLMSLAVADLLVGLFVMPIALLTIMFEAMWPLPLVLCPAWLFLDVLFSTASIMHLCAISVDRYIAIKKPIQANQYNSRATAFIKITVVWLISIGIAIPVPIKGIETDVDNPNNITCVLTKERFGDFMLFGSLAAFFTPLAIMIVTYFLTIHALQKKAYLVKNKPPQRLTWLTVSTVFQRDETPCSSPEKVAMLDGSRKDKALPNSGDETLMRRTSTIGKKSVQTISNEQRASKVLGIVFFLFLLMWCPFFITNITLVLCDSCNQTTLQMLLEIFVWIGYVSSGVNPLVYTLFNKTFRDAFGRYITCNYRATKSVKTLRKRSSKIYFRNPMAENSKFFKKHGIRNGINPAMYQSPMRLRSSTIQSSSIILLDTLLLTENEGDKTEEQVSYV
PDE4D (Homo sapiens, UniProt Q08499), sequence (Q08499 307-809 limits assumed): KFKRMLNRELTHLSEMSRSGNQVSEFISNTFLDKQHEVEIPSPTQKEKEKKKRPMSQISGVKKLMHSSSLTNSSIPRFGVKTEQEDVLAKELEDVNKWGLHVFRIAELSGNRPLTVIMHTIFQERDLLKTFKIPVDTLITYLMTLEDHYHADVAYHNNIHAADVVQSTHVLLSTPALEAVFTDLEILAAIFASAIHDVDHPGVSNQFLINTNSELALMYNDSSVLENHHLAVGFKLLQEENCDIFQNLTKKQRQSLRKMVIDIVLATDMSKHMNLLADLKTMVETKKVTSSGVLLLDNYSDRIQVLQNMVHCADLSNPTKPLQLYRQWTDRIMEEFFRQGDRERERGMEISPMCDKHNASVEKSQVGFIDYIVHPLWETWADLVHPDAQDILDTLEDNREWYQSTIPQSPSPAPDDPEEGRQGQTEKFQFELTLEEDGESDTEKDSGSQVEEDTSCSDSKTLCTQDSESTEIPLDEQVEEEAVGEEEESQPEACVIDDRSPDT

Row | Compound | IC50 (PDE4B1 (S133D)) [µM] | logD [3] | SUV, brain uptake in mice [4] [SUV] | other results
1 | O=C(O)Cc1ccc(Cc2cc(-c3cccc(Cl)c3)nc(C(F)(F)F)c2)cc1 [BPN14770] |  |  |  | PDE4D target occupancy (Lassen plot) (PDE4D [1]; radioligand [11C]T1650, blocking dose 3 mg/kg i.v.): 63%; receptor occupancy at 50 mg (PDE4D [2]): ~40%
2 | COc1ccc(Cc2cn[nH]c2)nc1-c1cccc([N+](=O)[O-])c1 [Compound 6] | 1.12 | 2.89 | 1.76 | IC50 [5]: 0.766 µM; off-target binding activity [6]: did not reveal significant off-target binding activity
3 | COc1ccc(C2CNC(=O)C2)cc1OC1CCCC1 (centres unmarked) [rolipram] |  |  |  | PDE4D target occupancy (Lassen plot) (PDE4D [1]; radioligand [11C]T1650, blocking dose 0.2 mg/kg i.v.): 63%; PDE4D target occupancy (Lassen plot) (PDE4D [1]; radioligand [11C]T1650, blocking dose 1.0 mg/kg i.v.): 93%; PDE4D target occupancy (Lassen plot) (PDE4D [1]; radioligand [11C]T1660, rolipram 1.0 mg/kg i.v.): 79%

Further lines, with some results ahead:

Row | IC50 (PDE4B1 (S133D)) [µM] | logD [3] | SUV, brain uptake in mice [4] [SUV] | Compound | other results
4 | 0.72 | 3.45 | 0.94 | COc1ccc(Cc2ccncc2)nc1-c1cccc(Cl)c1 [Compound 3, 2-(3-chlorophenyl)-3-methoxy-6-[(pyridin-4-yl)methyl]pyridine] | 
5 | 0.858 | 3.07 | 1.44 | Cn1cc(Cc2ccc(OC(F)F)c(-c3cccc(Cl)c3)n2)cn1 [Compound 4, 2-(3-chlorophenyl)-3-(difluoromethoxy)-6-[(1-methyl-1H-pyrazol-4-yl)methyl]pyridine] | IC50 (Human PDE4D7* (S129D)): 0.0005 µM
6 | 0.28 | 3.38 | 1.76 | COc1ccc(Cc2ccncc2)nc1-c1cccc([N+](=O)[O-])c1 [Compound 5, 3-methoxy-2-(3-nitrophenyl)-6-[(pyridin-4-yl)methyl]pyridine] | 
